Experimental data as given in US12329852B2, “Sustained-release 9-cis retinoic acid implantable drug delivery pellets for the prevention of postsurgical edema and lymphedema” (UNIVERSITY OF SOUTHERN CALIFORNIA, priority 2019, dated 2025).

Tested on: tail lymphedema
Assay: Dermal and epidermal thickness, H&E stained tails
Format: in vivo, BALB/c mice
Settings: 0.08 mg/kg daily i.p.; for mean epidermal tail thickness / dermal thickness: mean±standard error
Description: Tail specimens were collected on post-operative day 47. Specimens were harvested to include 1 cm proximal and 1 cm distal the wound, then divided to separate proximal and distal portions. Tails were inked to enable proper orientation, fixed in 10% neutral buffered formalin overnight, decalcified in 10% EDTA (pH: 7.3) for 6 days at 4° C., embedded in paraffin, sectioned at 3-5 μm, then stained with hematoxylin and eosin (H&E) or via immunohistochemical techniques. In summary, sections were deparaffinized, underwent antigen retrieval with sodium citrate buffer, incubated overnight with the primary antibody (1:200) at 4° C., washed, incubated with a suitable secondary antibody (1:200), then stained with immPACT DAB Substrate (Vector Laboratories, Inc, Burlingame, CA) and counterstained with Delafield Hematoxylin (Sigma-Aldrich, USA) diluted 1:4. Podoplanin (clone 8.1.1; sc-53533, Santa Cruz Biotechnology, Inc., Dallas, TX) was used to immunohistochemically mark lymphatics in paraffin embedded tail sections.
Slides were counterstained with hematoxylin and mounted. All images were obtained with a Keyence BZ-X700 microscope (Itasca, IL) and epidermal and dermal thickness was measured using ImageJ (National Institutes of Health, Betheseda, MD). The thickest part of the epidermis and dermis was measured in 5 high-power fields per section, as previously described. On the immunohistochemically stained slides, podoplanin stained vessels in the dermis and subcutis were quantified in ImageJ. Two high-power fields per section were randomly selected and then analyzed by a blinded reviewer. The reviewer scored the number of podoplanin stained vessels and the area (mm^2) of the dermis and subcutaneous tissue in each image. Lymphatic vessel density was calculated from the absolute lymphatic number normalized to the dermal and subcutaneous area measured (number of lymphatics/mm^2).^2 For the immunofluorescent stained slides, LYVE-1 stained vessels were quantified with ImageJ, to assess included lymphatic density, lymphatic vessel width, inter-lymphatic vessel distance, branching points, loops and blind-ended sacs.

For `CC1=C(/C=C/C(C)=C\C=C\C(C)=C\C(=O)O)C(C)(C)CCC1` [9-cis RA, 9-cis retinoic acid], the “dermal thickening compared to control” value (7-day group) was “no significant effect on tail lymphedema or dermal thickening”, the “mean epidermal tail thickness” value (7-day group) was 109.2±10.21 μm and the dermal thickness (14-day group) was 352.4±21.29 μm. The “mean epidermal tail thickness” value (14-day group) was 52.07±2.616 μm, the dermal thickness (45-day group) was 525.2±25.09 μm and the “mean epidermal tail thickness” value (45-day group) was 83.14±8.099 μm. For the same compound, the dermal thickness (delay group) was 502±30.17 μm and the “mean epidermal tail thickness” value (delay group) was 73.51±10.94 μm.
